For this experiment, the system named is rats fed a high fat diet. As to the kind of experiment: Fasting glucose and insulin plasma levels in rats fed a high fat diet. It is filed as in vivo, rat. The note with it: rats on high fat diet, 1 g/kg daily of citrulline or leucine, or 1.0 g/kg leucine and 1.0 g/kg citrulline; for fasting plasma glucose levels (glycemia): compared to high fat diet alone (FIG. 1); for fasting insulin plasma levels (insulinemia): compared to high fat diet alone and to chow-fed healthy rats (FIG. 2). As for the experimental part:
Compositions comprising citrulline, leucine, or […] were tested for their effect on fasting glucose levels and insulin plasma levels. Briefly, rats were split into six groups and fed either chow, a high fat diet, a high fat diet with 1 g/kg leucine daily, a high fat diet with 0.2 g/kg citrulline, a high fat diet with 1 g/kg citrulline daily or a high fat diet with a composition comprising 1.0 g/kg leucine and 1.0 g/kg citrulline.

With `NC(=O)NCCC[C@H](N)C(=O)O` [citrulline], the “fasting plasma glucose levels (glycemia)” value was “decrease” and the “fasting insulin plasma levels (insulinemia)” value is “decrease”.

On to `CC(C)C[C@H](N)C(=O)O` [leucine], for which the “fasting plasma glucose levels (glycemia)” value is listed as “decrease” and the “fasting insulin plasma levels (insulinemia)” value is given as “decrease”.

For the origin of these results see patent publication US11957652B2, “Compositions comprising citrulline and leucine and their use in the treatment of diabetes and metabolic syndrome” (SOCIÉTÉ DES PRODUITS NESTLÉ S.A., priority 2013, dated 2024).
